In series [1] the target is T1, AR (Homo sapiens, UniProt P10275, T878A).
T1 sequence (P10275 1-920 T878A): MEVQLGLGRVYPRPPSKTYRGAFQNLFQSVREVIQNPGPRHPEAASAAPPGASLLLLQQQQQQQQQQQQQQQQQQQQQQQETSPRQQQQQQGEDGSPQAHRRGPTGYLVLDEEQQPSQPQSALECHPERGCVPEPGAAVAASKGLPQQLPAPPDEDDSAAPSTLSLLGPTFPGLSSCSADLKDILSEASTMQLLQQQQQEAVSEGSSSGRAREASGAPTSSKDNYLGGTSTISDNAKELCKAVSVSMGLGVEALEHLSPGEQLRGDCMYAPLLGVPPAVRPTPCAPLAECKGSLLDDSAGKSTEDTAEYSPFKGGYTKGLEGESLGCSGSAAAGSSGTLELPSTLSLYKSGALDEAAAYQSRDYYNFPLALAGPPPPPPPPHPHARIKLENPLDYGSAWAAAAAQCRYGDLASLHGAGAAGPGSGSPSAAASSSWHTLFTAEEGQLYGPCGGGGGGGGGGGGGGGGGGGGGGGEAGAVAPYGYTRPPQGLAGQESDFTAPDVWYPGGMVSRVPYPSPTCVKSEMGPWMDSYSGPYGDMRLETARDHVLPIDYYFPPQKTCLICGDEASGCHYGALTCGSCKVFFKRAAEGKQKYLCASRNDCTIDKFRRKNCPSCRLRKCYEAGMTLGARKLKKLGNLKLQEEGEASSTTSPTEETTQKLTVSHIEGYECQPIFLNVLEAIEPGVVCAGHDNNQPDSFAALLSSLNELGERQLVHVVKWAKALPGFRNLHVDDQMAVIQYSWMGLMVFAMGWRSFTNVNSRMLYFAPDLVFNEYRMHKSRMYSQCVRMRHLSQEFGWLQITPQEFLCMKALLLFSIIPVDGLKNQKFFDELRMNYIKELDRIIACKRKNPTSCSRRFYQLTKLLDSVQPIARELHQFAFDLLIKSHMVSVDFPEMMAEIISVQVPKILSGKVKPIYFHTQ
The class given is cell-based. The settings on record: LNCaP cells, 15 μM, 24 h, Western blot.

Series [2] deals with DHT mediated AR transcription in LNCaP cells. Put plainly: Transcriptional activation luciferase assay. The class given is cell-based, human. The conditions noted are these: 10 μM compound, 10 nM DHT, 24 h.
The nature of series [3]: Solubility in ethanol or DMSO. In kind it is physicochemical. The settings on record: prevented biological testing.
The next series deals with LNCaP cells. The series can be described thus: Cell growth inhibition. The class given is cell-based, human.
Series [4] addresses T2, full-length and truncated AR (AR-3) (Homo sapiens, UniProt P10275).
T2 sequence (P10275 1-920): T1 sequence (P10275 1-920 T878A) with A878T
The series can be described thus: Western blot analysis of fAR and tAR-3 expression in CWR22Rv1 cells. The settings on record: 15 μM, 24 h.

For series [5], the target named is T1, AR. The series can be described thus: Immunocytochemical analysis of AR expression in LNCaP cells. The settings on record: 5 μM, 48 h.

Changes are numbered by the printed parent chain. “And” between values parts separate entries of the source, which are not always exact repeats. Identical values can stand only once. “Also recorded” adds a separate entry of the source.

Consider `CC(C)CCNCC1=C(n2cnc3ccccc32)[C@@]2(C)CC[C@H]3[C@@H](CC=C4C[C@@H](O)CC[C@@]43C)[C@@H]2C1` [Compound 25, 3β-Hydoxy-17-(1H-benzimidazol-1-yl)-16-((isopentylamino)methyl)-androsta-5,16-diene], for which, at AR [1], the “effect on AR protein expression (AR degradation / ARD activity)” value (“effect … (AR degradation / ARD activity)” for short) is given as “significant loss of ARD”. Besides, in series [2], the “inhibition of DHT mediated transcription” value is reported as 65–100%.

Take `C[C@]12CC[C@H](OC(=O)c3ccccn3)CC1=CC[C@@H]1[C@@H]2CC[C@]2(C)C(n3cnc4ccccc43)=CC[C@@H]12` [Compound 41, 3β-(Pyridine-2-carboxylate)-17-(1H-benzimidazol-1-yl)-androsta-5,16-diene]: in series [3], the “solubility in ethanol or DMSO” value was “limited solubilities in ethanol or DMSO”.

Consider `C[C@]12CC[C@H](O)CC1=CC[C@@H]1[C@@H]2CC[C@]2(C)C(n3cnc4cc(C#N)ccc43)=CC[C@@H]12` [Compound 18, 3β-Hydroxy-17-(5(6)-nitrile-1H-benzimidazol-1-yl)-androsta-5,16-diene], for which the GI50 with LNCaP cells (read-out: GI50, C-17 modified compounds, MTT, 7 days, at least three independent experiments, SEM < 10%) is 2810 nM. Besides, the “effect … (AR degradation / ARD activity)” value on AR [1] is listed as “diminished AR down-regulation (ARD) activity”.

Turning to `C[C@]12CC/C(=N\OCc3ccccc3)C=C1CC[C@@H]1[C@@H]2CC[C@]2(C)C(n3cnc4ccccc43)=CC[C@@H]12` (mixture of isomers) [Compound 39, 3-((EZ)-(O-Phenylmethyl)oxime)-17-(1H-Benzimidazol-1-yl)-androsta-4,16-diene], the “inhibition of DHT mediated transcription” value in series [2] was 65–100%.

`C[C@]12CC/C(=N\Oc3ccccc3)C=C1CC[C@@H]1[C@@H]2CC[C@]2(C)C(n3cnc4ccccc43)=CC[C@@H]12` (mixture of isomers) [Compound 37, 3-((EZ)-O-Phenyloxime)-17-(1H-Benzimidazol-1-yl)-androsta-4,16-diene]: the “solubility in ethanol or DMSO” value in series [3] is “limited solubility in ethanol or DMSO”.

`COc1ccc2ncn(C3=CC[C@H]4[C@@H]5CC=C6C[C@@H](O)CC[C@]6(C)[C@H]5CC[C@]34C)c2c1` [Compound 19, 3β-Hydroxy-17-(6-methoxy-1H-benzimidazol-1-yl)-androsta-5,16-diene]: the “effect … (AR degradation / ARD activity)” value on AR [1] is listed as “no modulation of ARDA”.

`C[C@]12CC[C@H](OC(=O)c3cccnc3)CC1=CC[C@@H]1[C@@H]2CC[C@]2(C)C(n3cnc4ccccc43)=CC[C@@H]12` [Compound 42, 3β-(Pyridine-3-carboxylate)-17-(1H-benzimidazol-1-yl)-androsta-5,16-diene]: the “solubility in ethanol or DMSO” value in series [3] was “limited solubilities in ethanol or DMSO”.

`COc1ccc(NCC2=C(n3cnc4ccccc43)[C@@]3(C)CC[C@H]4[C@@H](CC=C5C[C@@H](O)CC[C@@]54C)[C@@H]3C2)cc1OC` [Compound 31, 3β-Hydoxy-17-(1H-benzimidazol-1-yl)-16-(((3,4-dimethoxyphenyl)amino)methyl)-androsta-5,16-diene]: the “effect on full-length and truncated AR (AR-3) expression” value (shortened to “effect on full-length and truncated AR”) in series [4] is “significant down-regulation of both full-length and truncated AR”. In addition, the “effect … (AR degradation / ARD activity)” value at AR [1] is listed as “significant loss of ARD”.

In the case of `C[C@]12CC[C@H](O)CC1=CC[C@@H]1[C@@H]2CC[C@]2(C)C(n3cnc4ccccc43)=C(CNc3ccccc3)C[C@@H]12` [Compound 28, 3β-Hydoxy-17-(1H-benzimidazol-1-yl)-16-((phenylamino)methyl)-androsta-5,16-diene], the “effect … (AR degradation / ARD activity)” value on AR [1] was “significant loss of ARD”. Also, the “inhibition of DHT mediated transcription” value in series [2] is reported as 65–100%.

Turning to `C[C@]12CC[C@H](OC(=O)c3ccncc3)CC1=CC[C@@H]1[C@@H]2CC[C@]2(C)C(n3cnc4ccccc43)=CC[C@@H]12` [Compound 43, 3β-(Pyridine-4-carboxylate)-17-(1H-benzimidazol-1-yl)-androsta-5,16-diene], in series [4], the “effect on full-length and truncated AR” value is “could degrade both full-length and truncated AR”.

As to `C[C@]12CC[C@H](OS(C)(=O)=O)CC1=CC[C@@H]1[C@@H]2CC[C@]2(C)C(n3cnc4ccccc43)=CC[C@@H]12` [Compound 34, 3β-Mesyloxy-17-(1H-benzimidazol-1-yl)-androsta-5,16-dien], the “inhibition of DHT mediated transcription” value in series [2] is 65–100%.

With `C[C@]12CC[C@H](OC(=O)n3cncn3)CC1=CC[C@@H]1[C@@H]2CC[C@]2(C)C(n3cnc4ccccc43)=CC[C@@H]12` [Compound 49, 3β-(1H-1,2,4-Triazole-1-carboxylate)-17-(1H-benzimidazol-1-yl)-androsta-5,16-diene], the “effect … (AR degradation / ARD activity)” value on AR [1] is “significant up-regulation of AR”.

As to `C[C@]12CC[C@H](OC(=O)n3ccnc3)CC1=CC[C@@H]1[C@@H]2CC[C@]2(C)C(n3cnc4ccccc43)=CC[C@@H]12` [Compound 47, 3β-(1H-Imidazole-1-carboxylate)-17-(1H-benzimidazol-1-yl)-androsta-5,16-diene], the “AR levels in the nucleus” value at AR [5] was “significant decrease in AR levels in the nucleus”. Further, the “effect on full-length and truncated AR” value in series [4] was “could degrade both full-length and truncated AR; also recorded: significant down-regulation of both full-length and truncated AR”. Moreover, in the series with LNCaP cells (from GI50), the “fold more potent than compound 5, anti-proliferative activity” value was 4 fold and ~ 4 fold. In addition, the “effect … (AR degradation / ARD activity)” value on AR [1] is given as “most potent”. The “inhibition of DHT mediated transcription” value in series [2] is on record as 65–100%.

As to `Cc1nccn1C(=O)O[C@H]1CC[C@@]2(C)C(=CC[C@@H]3[C@@H]2CC[C@]2(C)C(n4cnc5ccccc54)=CC[C@@H]32)C1` [Compound 48, 3β-(2-Methyl-1H-imidazole-1-carboxylate)-17-(1H-benzimidazol-1-yl)-androsta-5,16-diene], in the series with LNCaP cells (from GI50), the “fold decrease in anti-proliferative activity relative to 47” value is 6 fold.

Turning to `CO/N=C1/C=C2CC[C@@H]3[C@H](CC[C@]4(C)C(n5cnc6ccccc65)=CC[C@@H]34)[C@@]2(C)CC1` (mixture of isomers) [Compound 38, 3-((EZ)-O-Methyloxime)-17-(1H-Benzimidazol-1-yl)-androsta-4,16-diene], in series [2], the “inhibition of DHT mediated transcription” value is 65–100%.

For the molecule `C[C@]12CCC(=NO)C=C1CC[C@@H]1[C@@H]2CC[C@]2(C)C(n3cnc4ccccc43)=CC[C@@H]12` (mixture of isomers) [Compound 36, 3-((EZ)-Hydroximino)-17-(1H-Benzimidazol-1-yl)-androsta-4,16-diene], the “effect on full-length and truncated AR” value in series [4] is “could degrade both full-length and truncated AR; also recorded: significant down-regulation of both full-length and truncated AR”. The “inhibition of DHT mediated transcription” value in series [2] was 65–100%.
